Data as given in US10857150B2, “Use of sanglifehrin macrocyclic analogues as anticancer compounds” (NEUROVIVE PHARMACEUTICAL AB, priority 2016, dated 2020).

What was measured:
Hep3B2.1-7-Luc = assay: 7-day proliferation assay, Calcein AM staining; format: cell-based, human
Protocol: (§1) The cells were seeded in a 96-well plate, test compound or DMSO was added and the plate was incubated for additional four days or 7 days (Calcein AM assay). Viable cell counts were determined after detachment by treatment with trypsin either by trypan blue exclusion, flow cytometry, indirectly by measuring ATP content by addition of an ATP measuring reagent (CellTiter Glo), or Calcein AM, prepared according to the instruction of the manufacturer directly.
(§2) XLfit software ((Fit model: Dose response one site/^F(x)[fit=(A+((B−A)/(1+((C/x)^D))))]) for curve fitting and IC50 calculation) was used for curve fitting and IC50 calculation.
(§3) In vitro evaluation of a sanglifehrin macrocyclic analogue (1) for anticancer activity against human hepatocyte cancer cell lines in comparison with NV556 (10) a 7-day proliferation assay. The cell numbers were determined by Calcein AM staining as described in the methods section. Data are from one experiment with each cell line testing duplicate samples of 9 concentrations of each compound. Both compounds were included in each experiment.
(§4) In vitro evaluation of a sanglifehrin macrocyclic analogue (1) for anticancer activity against human hepatocyte cancer cell lines in comparison with the cyclophilin inhibitor alisporivir and the kinase inhibitor sorafenib in a 7-day proliferation assay. The cell numbers were determined by Calcein AM staining as described in the methods section. Data are from one single experiment or means of two independent experiments testing duplicate samples of 9 concentrations of each compound. All three compounds were included in each experiment.

LIXC-006 = assay: 7-day proliferation assay, Calcein AM staining; format: cell-based, human
Protocol: as §1, §2, §3, §4

LIXC-066 = assay: 7-day proliferation assay, Calcein AM staining; format: cell-based, human
Protocol: as §1, §2, §3, §4

LIXC-086 = assay: 7-day proliferation assay, Calcein AM staining; format: cell-based, human
Protocol: as §1, §2, §3, §4

HepG2 [1] = assay: 7-day proliferation assay, Calcein AM staining; format: cell-based; details: Homo sapiens, 168 h, Example 6, n 2
Protocol: as §1, §2, §4

LIXC-003 = assay: 7-day proliferation assay, Calcein AM staining; format: cell-based; details: Homo sapiens, 168 h, Example 6, n 2
Protocol: as §1, §2, §4

LIXC-004 = assay: 7-day proliferation assay, Calcein AM staining; format: cell-based; details: Homo sapiens, 168 h, Example 6, n 2
Protocol: as §1, §2, §4

LIXC-011 = assay: 7-day proliferation assay, Calcein AM staining; format: cell-based; details: Homo sapiens, 168 h, Example 6, n 1
Protocol: as §1, §2, §4

LIXC-012 = assay: 7-day proliferation assay, Calcein AM staining; format: cell-based; details: Homo sapiens, 168 h, Example 6, n 2
Protocol: as §1, §2, §4

LIXC-002 = assay: 7-day proliferation assay, Calcein AM staining; format: cell-based, human; details: Example 5, one experiment
Protocol: as §1, §2, §3

HepG2 [2] = assay: combination with sorafenib, 7-day proliferation assay (Calcein AM), isobologram; format: cell-based, human; details: combination with sorafenib at different doses
Protocol: as §1
To test for potential synergistic activity with sorafenib, compound 1 (A) was added at a range of concentrations along with a range of concentrations of sorafenib (B) against a liver cancer cell line, HepG2 in a 7-day proliferation assay (Calcein AM assay, described in the methods section). Data are from one single experiment representative of two independent experiments testing duplicate samples. The data was plotted in a normalized isobologram (Chou and Martin. CompuSyn for Drug Combinations: PC Software and User's Guide: A Computer Program for Quantitation of Synergism and Antagonism in Drug Combinations, and the Determination of IC50 and ED50 and LD50 Values, ComboSyn Inc, Paramus, (NJ), 2005) and is shown in FIG. 7. Values at the lower left below the hypotenuse indicate synergism.

[3] = tested on: human hepatocyte cancer cell lines; assay: 7-day proliferation assay, comparison of potency over the cell lines; format: cell-based
Protocol: as §1, §3, §4

A2780 = assay: monolayer proliferation assay, human tumour cell line panel; format: cell-based; details: means of two experiments, 3 nM-25 μM
Protocol: as §1
(§5) Percentage inhibition in the ATP test was calculated by the formula described below: Growth inhibition %: 100−100×(Experimental−Blank)/(DMSO−Blank)
as §2
(§6) In vitro evaluation of compounds for anticancer activity in a panel of human tumour cell lines in a monolayer proliferation assay were carried out at Shanghai Chempartner.
(§7) In vitro evaluation of a sanglifehrin macrocyclic analogue (NV556) for anticancer activity in a panel of 11 human tumour cell lines in a monolayer proliferation assay was carried out as described in the general methods above. Data are means from two independent experiments testing 10 concentrations (3 nM-25 μM) in duplicate.

A375 = assay: as above; format: cell-based; details: means of two experiments, 10 concentrations 3 nM-25 μM
Protocol: as §1, §5, §2, §6, §7

A549 = assay: as above; format: cell-based; details: means of two experiments, 3 nM-25 μM
Protocol: as §1, §5, §2, §6, §7

HCT 116 = assay: as above; format: cell-based; details: means of two experiments, 3 nM-25 μM
Protocol: as §1, §5, §2, §6, §7

HT-29 = assay: as above; format: cell-based; details: means of two experiments, 3 nM-25 μM
Protocol: as §1, §5, §2, §6, §7

HepG2 [4] = assay: as above; format: cell-based; details: means of two experiments, 3 nM-25 μM
Protocol: as §1, §5, §2, §6, §7

Huh-7 = assay: as above; format: cell-based; details: means of two experiments, 3 nM-25 μM
Protocol: as §1, §5, §2, §6, §7

MDA-MB-231 = assay: as above; format: cell-based; details: means of two experiments, 3 nM-25 μM
Protocol: as §1, §5, §2, §6, §7

PANC-1 = assay: as above; format: cell-based; details: means of two experiments, 3 nM-25 μM
Protocol: as §1, §5, §2, §6, §7

PC-3 = assay: as above; format: cell-based; details: means of two experiments, 3 nM-25 μM
Protocol: as §1, §5, §2, §6, §7

RPMI 8226 = assay: as above; format: cell-based; details: means of two experiments, 3 nM-25 μM
Protocol: as §1, §5, §2, §6, §7

SK-Hep-1 = assay: as above; format: cell-based; details: means of two experiments, 3 nM-25 μM
Protocol: as §1, §5, §2, §6, §7

U251 = assay: as above; format: cell-based; details: means of two experiments, 3 nM-25 μM
Protocol: as §1, §5, §2, §6, §7

[5] = tested on: SK-Hep-1 tumour cell line; assay: combined anticancer activity, monolayer proliferation assay; format: cell-based, human; details: over certain concentration ranges
Protocol: as §1
In vitro evaluation of the combined anticancer activity of a sanglifehrin macrocyclic analogue with the anticancer agents sorafenib or doxorubicin against the SK-Hep-1 tumour cell line in a monolayer proliferation assay was carried out as described in the general methods above.

cyclophilin A (CyPA) = cyclophilin A (CyPA) (Homo sapiens, UniProt P62937); details: cited from earlier work
cyclophilin A (CyPA), sequence (P62937 whole entry, species assumed): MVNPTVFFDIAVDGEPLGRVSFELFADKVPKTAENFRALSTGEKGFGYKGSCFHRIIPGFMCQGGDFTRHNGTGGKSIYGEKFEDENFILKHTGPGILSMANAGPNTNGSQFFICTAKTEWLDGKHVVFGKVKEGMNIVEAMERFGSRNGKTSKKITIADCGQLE

[6] = tested on: cancer cell lines Huh7, HepG2 and OEM; details: three cancer cell lines Huh7, HepG2 and OEM; WO2011/098805; cited from earlier work
[7] = Homo sapiens, 168 h, Example 6, n 1
[8] = Homo sapiens, 168 h, Example 6, n 2
[9] = Homo sapiens, 168 h, Example 5, one experiment
[10] = read-out: Concentration giving 50% of maximum effect

C/C=C/C[C@@H](C)[C@@H](O)[C@H]1C(=O)N[C@@H](CC)C(=O)N(C)[C@H](C)C(=O)N(CC)[C@@H](C(C)C)C(=O)N[C@@H](C(C)C)C(=O)N(C)[C@@H](CC(C)C)C(=O)N[C@@H](C)C(=O)N[C@H](C)C(=O)N(C)[C@@H](CC(C)C)C(=O)N(C)[C@@H](CC(C)C)C(=O)N(C)[C@@H](C(C)C)C(=O)N1C [Alisporivir, alisporivir]
IC50 (Hep3B2.1-7-Luc; [7]): 2880 nM
IC50 (LIXC-006; [8]): 993 nM
IC50 (LIXC-066; [7]): 1640 nM
IC50 (LIXC-086; [7]): 2250 nM
IC50 (HepG2 [1]): 3130 nM
IC50 (LIXC-003): 4730 nM
IC50 (LIXC-004): 3810 nM
IC50 (LIXC-011): 8710 nM
IC50 (LIXC-012): 3220 nM

CC(=O)CC[C@H]1C(=O)N[C@@H](C(C)C)C(=O)N[C@@H](Cc2cc(O)cc(F)c2)C(=O)N2CCCC(N2)C(=O)O[C@H](/C(C)=C/C=C/C(=O)OC(C)(C)C)C/C=C/C=C/[C@H](O)[C@H](C)[C@H]1O (some centres unmarked) [Compound 1]
IC50 (Hep3B2.1-7-Luc; [9]): 11 nM
IC50 (Hep3B2.1-7-Luc; [7]): 9 nM
IC50 (LIXC-006; [9]): 9 nM
IC50 (LIXC-006; [8]): 6 nM
IC50 (LIXC-066; [9]): 93 nM
IC50 (LIXC-066; [7]): 169 nM
IC50 (LIXC-086; [9]): 905 nM
IC50 (LIXC-086; [7]): 686 nM
IC50 (LIXC-002; Homo sapiens, 168 h): < 3 nM
IC50 (HepG2 [1]): 7 nM
IC50 (LIXC-003): 8 nM
IC50 (LIXC-004): 4 nM
IC50 (LIXC-011): 12 nM
IC50 (LIXC-012): 65 nM
growth inhibitory effect of simultaneous treatment (HepG2 [2]): synergistic growth inhibitory effect
potency relative to NV556 (10) ([3]; Example 5, all cases (5 cell lines)): 3-10 fold
potency relative to alisporivir ([3]; Example 6, all cases (9 cell lines)): 3-1000 fold
potency relative to sorafenib ([3]; Example 6, in 8/9 cases): 3-600 fold

CC(=O)CCC1C(=O)NC(C(C)C)C(=O)NC(Cc2cc(O)cc(F)c2)C(=O)N2CCCC(N2)C(=O)OC(C(C)=CC=CC(=O)N2CCCCO2)CC=CC=CC(O)C(C)C1O (centres unmarked) [NV556]
Maximum inhibition (%) (A2780): 83.7%
EC50 (A2780; [10]): 100 nM
Maximum inhibition (%) (A375): 87.6%
EC50 (A375; [10]): 2100 nM
Maximum inhibition (%) (A549): 45.2%
EC50 (A549; [10]): 100 nM
Maximum inhibition (%) (HCT 116): 88.7%
EC50 (HCT 116; [10]): 100 nM
Maximum inhibition (%) (HT-29): 56.8%
Maximum inhibition (%) (HepG2 [4]): 80.6%
EC50 (HepG2 [4]; [10]): 100 nM
Maximum inhibition (%) (Huh-7): 22.4%
EC50 (Huh-7; [10]): 30 nM
Maximum inhibition (%) (MDA-MB-231): 49.9%
EC50 (MDA-MB-231; [10]): 500 nM
Maximum inhibition (%) (PANC-1): 51.0%
EC50 (PANC-1; [10]): 1300 nM
Maximum inhibition (%) (PC-3): 45.3%
EC50 (PC-3; [10]): 300 nM
Maximum inhibition (%) (RPMI 8226): 87.1%
EC50 (RPMI 8226; [10]): 200 nM
Maximum inhibition (%) (SK-Hep-1): 94.6%
EC50 (SK-Hep-1; [10]): 100 nM
Maximum inhibition (%) (U251): 62.0%
EC50 (U251; [10]): 16.9 µM
IC50 (Hep3B2.1-7-Luc; Example 5, one experiment): 54 nM
IC50 (LIXC-006; Example 5, one experiment): 62 nM
IC50 (LIXC-066; Example 5, one experiment): 244 nM
IC50 (LIXC-086; Example 5, one experiment): 9490 nM
IC50 (LIXC-002): 39 nM
reduction in cell numbers, combination versus single compounds ([5]; combination with doxorubicin): stronger reduction in cell numbers than either compound alone
reduction in cell numbers, combination versus single compounds ([5]; combination with sorafenib): stronger reduction in cell numbers than either compound alone

CC[C@H]1C[C@H](C)[C@@]2(NC1=O)O[C@@H](C[C@H](O)[C@@H](C)CC/C=C/C=C(\C)[C@@H]1C/C=C/C=C/[C@H](O)[C@H](C)[C@@H](O)[C@@H](CCC(C)=O)C(=O)N[C@@H](C(C)C)C(=O)N[C@@H](Cc3cccc(O)c3)C(=O)N3CCC[C@H](N3)C(=O)O1)[C@H](C)[C@H](O)[C@@H]2C [SfA, Sanglifehrin A]
affinity for CyPA compared to CsA (cyclophilin A (CyPA); higher affinity): approximately 20 fold

CNC(=O)c1cc(Oc2ccc(NC(=O)Nc3ccc(Cl)c(C(F)(F)F)c3)cc2)ccn1 [Sorafenib, sorafenib]
IC50 (LIXC-006; [8]): 3960 nM
IC50 (HepG2 [1]): 2960 nM
IC50 (LIXC-003): 4 nM
IC50 (LIXC-004): 2190 nM
IC50 (LIXC-011): 538 nM
IC50 (LIXC-012): 1150 nM

CC(=O)CCC1C(=O)NC(C(C)C)C(=O)NC(Cc2cccc(O)c2)C(=O)N2CCCC(N2)C(=O)OC(C(C)=CC=CC(=O)OC(C)(C)C)CC=CC=CC(O)C(C)C1O (centres unmarked) [compound 9]
effect on cancer cell lines [6]: limited effect

CC(=O)CCC1C(=O)NC(C(C)C)C(=O)NC(Cc2cccc(O)c2)C(=O)N2CCCC(N2)C(=O)OC(C(C)=CCO)CC=CC=CC(O)C(C)C1O (centres unmarked) [hydroxymacrocycle]
affinity for CyPA (cyclophilin A (CyPA); Sedrani et al., 2003): strong affinity
